From patent publication US20250257064A1, “TRIFLUOROMETHYL-SUBSTITUTED SULFONAMIDE AS BCL-2-SELECTIVE INHIBITOR” (Chia Tai Tianqing Pharmaceutical Group Co., Ltd., priority 2018, published 2025) come the findings set out here.

Some results are limits rather than exact numbers.

One assay addresses T1, BCL-2/BAK (Homo sapiens, UniProt P10415).
T1 construct: purchased Cisbio
The assay is described as follows: Screening on inhibitory activity for BCL-2/BAK binding (Cisbio HTRF kit). The protocol:
1.1 Screening on Inhibitory Activity for BCL-2/BAK Binding
500 nM Tag1-BCL-2 protein stock solution and 20 μM Tag2-BAK protein stock solution were diluted to 5 nM and 120 nM respectively with dilution buffer in kit (model: BCL-2/BAK (BH3) BINDING ASSAY KITS, from Cisbio). 5 μL of Tag1-BCL-2 protein diluent was added to each well, then different compounds dissolved with DMSO were added to the wells with a nanoliter pipettor, allowing the final compound concentrations to be 200 nM to 0.0488 nM (4-fold gradient for 7 concentrations in total). Blank control wells (without enzyme) and negative control wells (with enzyme, plus vehicle DMSO) were set, and 2 replicate wells were set. Finally, 5 μL of Tag2-BAK protein diluent was added to each well, and the mixture was mixed well by centrifugation and incubated at 25° C. for 15 min. 100× anti-Tag1-Eu^3+ and 100× anti-Tag2-XL665 were both diluted to 1× working concentration with the detection buffer in the kit. Anti-Tag1-Eu^3+ and anti-Tag2-XL665 were mixed well in a 1:1 ratio, and the mixture was added to wells at 5 μL/well, and incubated at 25° C. for 2 h or more. The plate was read using a PE Envision multi-functional microplate reader (excitation: […], emission: 665 nm) and IC50 (shown in table 1) was calculated by four-parameter fitting.

In another assay the target is T2, BCL-XL/BAK (Homo sapiens, UniProt Q07817).
T2 construct: purchased Cisbio
The experiment in a line: Screening on inhibitory activity for BCL-XL/BAK binding (Cisbio HTRF kit). How it is done:
1.2 Screening on Inhibitory Activity for BCL-XL/BAK Binding
300 nM Tag1-BCL-XL protein stock solution and 10 μM Tag2-BAK protein stock solution were diluted to 2 nM and 80 nM respectively with dilution buffer in kit (model: BCL-XL/BAK (BH3) BINDING ASSAY KITS, from Cisbio). 5 μL of Tag1-BCL-XL protein diluent was added to each well, then different compounds dissolved with DMSO were added to the wells with a nanoliter pipettor, allowing the final compound concentrations to be 2000 nM to 0.488 nM (4-fold gradient for 7 concentrations in total). Blank control wells (without enzyme) and negative control wells (with enzyme, plus vehicle DMSO) were set, and 2 replicate wells were set. Finally, 5 μL of Tag2-BAK protein diluent was added to each well, and the mixture was mixed well by centrifugation and incubated at 25° C. for 15 min. 100× anti-Tag1-Eu^3+ and 100× anti-Tag2-XL665 were both diluted to 1× working concentration with the detection buffer in the kit. Anti-Tag1-Eu^3+ and anti-Tag2-XL665 were mixed well in a 1:1 ratio, and the mixture was added to wells at 5 µL/well, and incubated at 25° C. for 2 h or more. The plate was read using a PE Envision multi-functional microplate reader (excitation: […], emission: 665 nm) and IC50 (shown in table 1) was calculated by four-parameter fitting.
In general terms: TR-FRET usually uses a lanthanide donor and a delayed reading to cut background.

The next assay concerns RS4;11 cells. The assay is described as follows: Inhibitory effect on proliferation of RS4;11 cells (CCK-8). In kind it is cell-based, human. The conditions noted are these: Homo sapiens, RS4-11, 72 h. The protocol: Experimental Example 2: Inhibitory Effect of Compounds on Proliferation of RS4;11 Cells
RS4;11 cells (from Nanjing Cobioer) in logarithmic growth phase and good cell condition were added to a centrifuge tube and centrifuged at 1500 rpm for 3 min in a low speed centrifuge. The supernatant was discarded, and 5 mL of complete medium (RPMI basic medium+10 wt % fetal bovine serum (FBS)) was added using a pipette for cell resuspension. The cells were counted using a cell counter, diluted with complete medium to a cell density of 2×10^5 cells/mL, and added with an equivalent amount of RPMI basic medium to adjust the serum concentration to 5% and the cell density to 1×10^5 cells/mL for plate seeding. The cells were seeded on a 96-well plate at 100 μL/well using a pipettor, and incubated in an incubator at 37° C., 5% CO2 with saturated humidity. After 24 h of incubation, compounds were loaded using a nanoliter pipettor, 2 duplicate wells were set for each concentration, and cells without compound were used as negative controls. […] Inhibition rate (%)=(mean value of negative control group—mean value of experimental group)/(mean value of negative control group—mean value of blank group)×100%. A dose-response curve was fitted by four-parameter analysis, with the logarithm of compound concentration serving as abscissa and inhibition rate serving as ordinate, so that IC50 was calculated (FIG. 2).

T2 sequence (Q07817 whole entry, species assumed): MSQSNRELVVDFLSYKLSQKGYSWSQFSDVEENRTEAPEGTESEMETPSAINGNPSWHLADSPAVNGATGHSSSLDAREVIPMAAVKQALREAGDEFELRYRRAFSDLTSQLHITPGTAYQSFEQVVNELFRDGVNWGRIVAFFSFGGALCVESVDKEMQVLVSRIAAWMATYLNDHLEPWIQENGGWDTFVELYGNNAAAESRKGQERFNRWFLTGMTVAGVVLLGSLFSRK
T1 sequence (P10415 whole entry, species assumed): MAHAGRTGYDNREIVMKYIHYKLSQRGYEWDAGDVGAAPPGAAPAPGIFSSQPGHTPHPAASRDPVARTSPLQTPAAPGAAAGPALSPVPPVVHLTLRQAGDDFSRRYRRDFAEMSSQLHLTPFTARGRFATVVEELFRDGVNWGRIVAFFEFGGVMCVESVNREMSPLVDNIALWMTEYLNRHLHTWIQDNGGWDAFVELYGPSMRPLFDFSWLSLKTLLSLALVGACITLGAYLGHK

“4-(4-{[2-(2-chloro-4-trifluoromethylphenyl)-4,4-dimethylcyclohex-1-enyl]methyl}-piperazin-1-yl)-N-({3-nitro-4-[(4-((trifluoromethyl) sulfonyl)morpholin-2-yl)methyl)amino]phenyl}sulfonyl)-2-(1H-pyrrolo[2,3-b]pyridin-5-yloxy)-benzamide [Compound 56-1]”: the half-maximal inhibitory concentration (IC50) – broadly, the concentration needed to halve the response being measured – at BCL-2/BAK was found to be 3.55 nM; at BCL-XL/BAK, 381 nM.
On the same counts, the results for `CC1(C)CCC(CN2CCN(c3ccc(C(=O)NS(=O)(=O)c4ccc(NCC5CCOCC5)c([N+](=O)[O-])c4)c(Oc4cnc5[nH]ccc5c4)c3)CC2)=C(c2ccc(Cl)cc2C(F)(F)F)C1` [Compound 3-1, 4-(4-{[2-(4-chloro-2-trifluoromethylphenyl)-4,4-dimethylcyclohex-1-enyl]methyl}-piperazin-1-yl)-N-({3-nitro-4-[(tetrahydro-2H-pyran-4-ylmethyl)amino]phenyl}sulfonyl)-2-(1H-pyrrolo[2,3-b]pyridin-5-yloxy)-benzamide] are 0.86 nM and more than 2000 nM.
With `CC1(C)CCC(CN2CCN(c3ccc(C(=O)NS(=O)(=O)c4ccc(NCC5CCOCC5)c([N+](=O)[O-])c4)c(Oc4cnc5[nH]ccc5c4)c3)CC2)=C(c2ccc(C(F)(F)F)c(Cl)c2)C1` [Compound 4-1, 4-(4-{[2-(3-chloro-4-trifluoromethylphenyl)-4,4-dimethylcyclohex-1-enyl]methyl}-piperazin-1-yl)-N-({3-nitro-4-[(tetrahydro-2H-pyran-4-ylmethyl)amino]phenyl}sulfonyl)-2-(1H-pyrrolo[2,3-b]pyridin-5-yloxy)-benzamide], the figures for the 50% inhibitory concentration (IC50) on BCL-2/BAK and on BCL-XL/BAK were 0.8 nM and more than 2000 nM, respectively.
`CC1(C)CCC(CN2CCN(c3ccc(C(=O)NS(=O)(=O)c4ccc(NCCC5CN(S(C)(=O)=O)CCO5)c([N+](=O)[O-])c4)c(Oc4cnc5[nH]ccc5c4)c3)CC2)=C(c2ccc(C(F)(F)F)cc2Cl)C1` (centres unmarked) [Compound 21-1, 4-(4-{[2-(2-chloro-4-trifluoromethylphenyl)-4,4-dimethylcyclohex-1-enyl]methyl}-piperazin-1-yl)-N-({3-nitro-4-[(2-(4-(methylsulfonyl)morpholin-2-yl)ethyl)amino]phenyl}sulfonyl)-2-(1H-pyrrolo[2,3-b]pyridin-5-yloxy)-benzamide]: the results for the half-inhibitory concentration (IC50) at BCL-2/BAK and in the assay on RS4;11 cells were 2.4 nM and 4.1 nM, respectively.
Take `CCN1CCOCC1CNc1ccc(S(=O)(=O)NC(=O)c2ccc(N3CCN(CC4=C(c5ccc(C(F)(F)F)cc5Cl)CC(C)(C)CC4)CC3)cc2Oc2cnc3[nH]ccc3c2)cc1[N+](=O)[O-]` (centres unmarked) [Compound 24-1, 4-(4-{[2-(2-chloro-4-trifluoromethylphenyl)-4,4-dimethylcyclohex-1-enyl]methyl}-piperazin-1-yl)-N-({3-nitro-4-[((4-ethylmorpholin-3-yl)methyl)amino]phenyl}sulfonyl)-2-(1H-pyrrolo[2,3-b]pyridin-5-yloxy)-benzamide]: the IC50 at BCL-2/BAK amounted to 5.11 nM; at BCL-XL/BAK, 556 nM.
In the case of `CC1(C)CCC(CN2CCN(c3ccc(C(=O)NS(=O)(=O)c4ccc(NC[C@@H]5CCOC5)c([N+](=O)[O-])c4)c(Oc4cnc5[nH]ccc5c4)c3)CC2)=C(c2ccc(C(F)(F)F)cc2Cl)C1` [Compound 36-1, (S)-4-(4-{[2-(2-chloro-4-trifluoromethylphenyl)-4,4-dimethylcyclohex-1-enyl]methyl}-piperazin-1-yl)-N-({3-nitro-4-[((tetrahydrofuran-3-yl)methyl)amino]phenyl}sulfonyl)-2-(1H-pyrrolo[2,3-b]pyridin-5-yloxy)-benzamide], the IC50 on BCL-2/BAK was determined as 1.78 nM; at BCL-XL/BAK it was 157 nM.
On the same counts, the results for `CC1(C)CCC(CN2CCN(c3ccc(C(=O)NS(=O)(=O)c4ccc(NC[C@@H]5CCCO5)c([N+](=O)[O-])c4)c(Oc4cnc5[nH]ccc5c4)c3)CC2)=C(c2ccc(C(F)(F)F)cc2Cl)C1` [Compound 37-1, (S)-4-(4-{[2-(2-chloro-4-trifluoromethylphenyl)-4,4-dimethylcyclohex-1-enyl]methyl}-piperazin-1-yl)-N-({3-nitro-4-[((tetrahydrofuran-2-yl)methyl)amino]phenyl}sulfonyl)-2-(1H-pyrrolo[2,3-b]pyridin-5-yloxy)-benzamide] are 1.59 nM and 142 nM.
As for `CC1(C)CCC(CN2CCN(c3ccc(C(=O)NS(=O)(=O)c4ccc(NCCC5CCCOC5)c([N+](=O)[O-])c4)c(Oc4cnc5[nH]ccc5c4)c3)CC2)=C(c2ccc(C(F)(F)F)cc2Cl)C1` (centres unmarked) [Compound 45-1, 4-(4-{[2-(2-chloro-4-trifluoromethylphenyl)-4,4-dimethylcyclohex-1-enyl]methyl}-piperazin-1-yl)-N-({3-nitro-4-[((2-tetrahydropyran-3-yl)ethyl)amino]phenyl}sulfonyl)-2-(1H-pyrrolo[2,3-b]pyridin-5-yloxy)-benzamide], the IC50 is 2.18 nM on BCL-2/BAK and 243 nM at BCL-XL/BAK.
For `CC1(C)CCC(CN2CCN(c3ccc(C(=O)NS(=O)(=O)c4ccc(NCC5CN(C(=O)CC#N)CCO5)c([N+](=O)[O-])c4)c(Oc4cnc5[nH]ccc5c4)c3)CC2)=C(c2ccc(C(F)(F)F)cc2Cl)C1` (centres unmarked) [Compound 51-1, 4-(4-{[2-(2-chloro-4-trifluoromethylphenyl)-4,4-dimethylcyclohex-1-enyl]methyl}-piperazin-1-yl)-N-({3-nitro-4-[((4-(2-cyanoacetyl)morpholin-2-yl)methyl)amino]phenyl}sulfonyl)-2-(1H-pyrrolo[2,3-b]pyridin-5-yloxy)-benzamide], the IC50 worked out at 1.9 nM at BCL-2/BAK and 1.1 nM in the assay on RS4;11 cells.
As for `CN(C)CC(=O)N1CCC(CNc2ccc(S(=O)(=O)NC(=O)c3ccc(N4CCN(CC5=C(c6ccc(C(F)(F)F)cc6Cl)CC(C)(C)CC5)CC4)cc3Oc3cnc4[nH]ccc4c3)cc2[N+](=O)[O-])CC1` [Compound 59-1], the IC50 on BCL-2/BAK came out at 1.1 nM; with RS4;11 cells, 1 nM.
`CN(C)CC(=O)N1CCCC(CNc2ccc(S(=O)(=O)NC(=O)c3ccc(N4CCN(CC5=C(c6ccc(C(F)(F)F)cc6Cl)CC(C)(C)CC5)CC4)cc3Oc3cnc4[nH]ccc4c3)cc2[N+](=O)[O-])C1` (centres unmarked) [Compound 60-1]: the 50% inhibitory concentration (IC50) on BCL-2/BAK was 1.1 nM; in the assay on RS4;11 cells, 1.3 nM.
Take `CC(=O)N1CCO[C@@H](CNc2ccc(S(=O)(=O)NC(=O)c3ccc(N4CCN(CC5=C(c6ccc(C(F)(F)F)cc6Cl)CC(C)(C)CC5)CC4)cc3Oc3cnc4[nH]ccc4c3)cc2[N+](=O)[O-])C1` [Compound 61-1, (S)-4-(4-{[2-(2-chloro-4-trifluoromethylphenyl)-4,4-dimethylcyclohex-1-enyl]methyl}-piperazin-1-yl)-N-({3-nitro-4-[((4-acetylmorpholin-2-yl)methyl)amino]phenyl}sulfonyl)-2-(1H-pyrrolo[2,3-b]pyridin-5-yloxy)-benzamide]: the IC50 was 1.52 nM on BCL-2/BAK and 3.2 nM in the assay on RS4;11 cells.
Turning to `COCC(=O)N1CCOC(CCNc2ccc(S(=O)(=O)NC(=O)c3ccc(N4CCN(CC5=C(c6ccc(C(F)(F)F)cc6Cl)CC(C)(C)CC5)CC4)cc3Oc3cnc4[nH]ccc4c3)cc2[N+](=O)[O-])C1` (centres unmarked) [Compound 72-1, 4-(4-{[2-(2-chloro-4-trifluoromethylphenyl)-4,4-dimethylcyclohex-1-enyl]methyl}-piperazin-1-yl)-N-({3-nitro-4-[(2-(4-(2-methoxyacetyl)morpholin-2-yl)ethyl)amino]phenyl}sulfonyl)-2-(1H-pyrrolo[2,3-b]pyridin-5-yloxy)-benzamide], the results for the concentration for half-maximal inhibition (IC50) at BCL-2/BAK and on BCL-XL/BAK were 2.32 nM and 122 nM, respectively.
